Results from US20200172549A1, “NOVEL CHLORIN E6-CURCUMIN DERIVATIVES, PREPARATION METHOD THEREOF, AND PHARMACEUTICAL COMPOSITION CONTAINING THE SAME FOR TREATMENT OF CANCER” (DONG SUNG PHARM. CO., LTD., priority 2017, published 2020).

Legend:
PANC-1 = experiment: Phototoxicity (PDT), MTT assay, PANC-1; format: cell-based; conditions: for Cell viability, Phototoxicity against PANC-1: 3 h, 50 mW 0.09 J/cm^2 laser 100 sec, 72 h incubation; for inhibition at 25 µM: 25 μM concentration
Procedure: (§1) Phototoxicity: The culture of AsPC-1 pancreatic cancer cells were grown in RPMI-1640 medium (life technologies corporation, USA) supplemented with 10% heat-inactivated fetal bovine serum (life technologies corporation, USA) and 1% penicillin (life technologies corporation, USA), whereas MIA-paca2 and PANC-1 cells were grown in DMEM. The MTT assay was used to assess the cell viability of AsPC-1, MIA-paca2, PANC-1 cells. The cells attached to a 96-well plate (5,000 cells/well) were treated with 3.125 μM, 6.25 μM, 12.5 μM, 25 μM, 50 μM of photosensitizers, 7, 10, 13, 16, and 3 for 3 h. The photosensitized cells were then irradiated with a 50 mW, 0.09 J/cm^2 laser for 100 sec. The cells were then incubated for 72 h at 37° C. in a 5% CO2 incubator and exposed to MTT [3-(4,5-dimethylthiazol-2-yl)-2,5-diphenyl-tetrazolium bromide] (250 μg/ml) for 3 h. The solution was changed to 200 μl of dimethylsulfoxide (DMSO, Sigma). After 30 min incubation and shaking in microplate mixer, the optical density (OD) was measured using a microplate reader (Thermo Fisher scientific, USA) at 570 nm wavelength. The cell viability was calculated using the following formula: Cell viability (%)=Mean optical density of treated wells/Mean optical density of control wells×100.

[1] = tested on: AsPC-1 pancreatic cancer cells; experiment: Phototoxicity (PDT), MTT assay, AsPC-1; format: cell-based; conditions: for Cell viability, Phototoxicity against AsPC-1: 3 h, 50 mW 0.09 J/cm^2 laser 100 sec, 72 h incubation; for inhibition at 25 µM: 25 μM concentration
Procedure: as §1

[2] = Dark cytotoxicity, MTT assay, AsPC-1; format: cell-based; conditions: human, AsPC-1 pancreatic cancer cells, 3 h, no light, 72 h incubation, read-out: Cell viability, Dark Cytotoxicity against AsPC-1; for viability at 3.12 μM: 3.12 μM photosensitizer; for viability at 6.25 μM: 6.25 μM photosensitizer; for viability at 12.5 μM: 12.5 μM photosensitizer; for viability at 25 μM: 25 μM photosensitizer; for viability at 50 μM: 50 μM photosensitizer
Procedure: as §1, with “Dark cytotoxicity:” for “Phototoxicity:”, “1” for “1%”, “h.” for “h. The photosensitized cells were then irradiated with a 50 mW, 0.09 J/cm^2 laser for 100 sec.”

[3] = Dark cytotoxicity, MTT assay, MIA-PaCa-2; format: cell-based; conditions: human, MIA-PaCa-2 cells, 3 h, no light, 72 h incubation, read-out: Cell viability, Dark cytotoxicity against MIA-PaCa-2; for viability at 3.12 μM: 3.12 μM photosensitizer; for viability at 6.25 μM: 6.25 μM photosensitizer; for viability at 12.5 μM: 12.5 μM photosensitizer; for viability at 25 μM: 25 μM photosensitizer; for viability at 50 μM: 50 μM photosensitizer
Procedure: as §1, with “Dark cytotoxicity:” for “Phototoxicity:”, “1” for “1%”, “h.” for “h. The photosensitized cells were then irradiated with a 50 mW, 0.09 J/cm^2 laser for 100 sec.”

[4] = Photophysical properties (absorption) in DMSO; format: physicochemical
Procedure: The photophysical properties of Ce6-curcumin conjugates and dimethyl ester ce6 were analyzed in dimethyl sulfoxide (DMSO). All the photosensitizers 7, 10, 13, and 16 (Formula IV) effectively absorbed the red light compared to dimethyl ester ce6. The major soret peak at λmax=405-408 nm and Q-bands at 667 nm for the photosensitizers 7, 10, 13, and 16 (Formula IV) and Q band peak at 656 for dimethyl ester ce6.

MIA-PaCa-2 = experiment: Phototoxicity (PDT), MTT assay, MIA-PaCa-2; format: cell-based; conditions: for Cell viability, Phototoxicity against MIA-PaCa-2: 3 h, 50 mW 0.09 J/cm^2 laser 100 sec, 72 h incubation
Procedure: as §1

[5] = Homo sapiens, PANC-1, with light
[6] = Homo sapiens, ASPC1, with light

Molecule	Cell viability, Phototoxicity against PANC-1 (PANC-1; 3.12 μM photosensitizer) [%]	Cell viability, Phototoxicity against PANC-1 (PANC-1; 6.25 μM photosensitizer) [%]	Cell viability, Phototoxicity against PANC-1 (PANC-1; 12.5 μM photosensitizer) [%]	Cell viability, Phototoxicity against PANC-1 (PANC-1; 25 μM photosensitizer) [%]	Cell viability, Phototoxicity against PANC-1 (PANC-1; 50 μM photosensitizer) [%]	Cell viability, Phototoxicity against AsPC-1 ([1]; 3.12 μM photosensitizer) [%]	Cell viability, Phototoxicity against AsPC-1 ([1]; 6.25 μM photosensitizer) [%]	Cell viability, Phototoxicity against AsPC-1 ([1]; 12.5 μM photosensitizer) [%]	Cell viability, Phototoxicity against AsPC-1 ([1]; 25 μM photosensitizer) [%]	Cell viability, Phototoxicity against AsPC-1 ([1]; 50 μM photosensitizer) [%]	viability at 3.12 μM [2] [%]	viability at 6.25 μM [2] [%]	viability at 12.5 μM [2] [%]	viability at 25 μM [2] [%]	viability at 50 μM [2] [%]	viability at 3.12 μM [3] [%]	viability at 6.25 μM [3] [%]	viability at 12.5 μM [3] [%]	viability at 25 μM [3] [%]	viability at 50 μM [3] [%]	also measured
C=Cc1c(C)c2cc3nc(c(CC(=O)O)c4[nH]c(cc5nc(cc1[nH]2)C(C)=C5CC)c(C)c4C(=O)O)[C@@H](CCC(=O)O)[C@@H]3C [Compound 3, Chlorin e6]	104.37	82.85	30.03	8.57	7.61	91.05	76.65	66.31	37.32	17.52	98.8	101	100	99.6	100	98.8	101	100	99.6	100	inhibition at 25 µM (PANC-1; [5]): 91%; inhibition at 25 µM [1, 6]: 63%
C=Cc1c(C)c2cc3nc(c(CC(=O)OC)c4[nH]c(cc5nc(cc1[nH]2)C(C)=C5CC)c(C)c4C(=O)NCCCCCCNC(=O)CCCC(=O)Oc1ccc(/C=C/C(=O)CC(=O)/C=C/c2ccc(O)c(OC)c2)cc1OC)C(CCC(=O)OC)C3C (centres unmarked) [Compound 10, Chlorine e6-curcumin Conjugate (10)]	99.74	96.76	81.89	81.07	73.00	85.90	75.12	34.05	26.11	23.17	96.5	98.2	98.5	95	78.8	89.7	82	75.1	66.4	48.7	Q-band peak [4]: 667 nm; Cell viability, Phototoxicity against MIA-PaCa-2 (MIA-PaCa-2; 3.12 μM photosensitizer): 94.15%; Cell viability, Phototoxicity against MIA-PaCa-2 (MIA-PaCa-2; 6.25 μM photosensitizer): 90.03%; Cell viability, Phototoxicity against MIA-PaCa-2 (MIA-PaCa-2; 12.5 μM photosensitizer): 85.20%; Cell viability, Phototoxicity against MIA-PaCa-2 (MIA-PaCa-2; 25 μM photosensitizer): 64.88%; Cell viability, Phototoxicity against MIA-PaCa-2 (MIA-PaCa-2; 50 μM photosensitizer): 48.21%
C=Cc1c(C)c2cc3nc(c(CC(=O)OC)c4[nH]c(cc5nc(cc1[nH]2)C(C)=C5CC)c(C)c4C(=O)NCCOCCOCCNC(=O)CCCC(=O)Oc1ccc(/C=C/C(=O)CC(=O)/C=C/c2ccc(O)c(OC)c2)cc1OC)C(CCC(=O)OC)C3C (centres unmarked) [Compound 13, Chlorine e6-curcumin Conjugate (13)]	8.51	7.71	7.53	8.04	7.28	7.34	6.61	6.48	6.58	6.58	105	108	106	98.5	78.7	114	115	114	96.3	66.8	inhibition at 3 µM (PANC-1; Homo sapiens, PANC-1, 3 μM concentration, with light): > 90%; inhibition at 3 µM ([1]; Homo sapiens, ASPC1, 3 μM concentration, with light): > 90%; Q-band peak [4]: 667 nm; Cell viability, Phototoxicity against MIA-PaCa-2 (MIA-PaCa-2; 3.12 μM photosensitizer): 4.68%; Cell viability, Phototoxicity against MIA-PaCa-2 (MIA-PaCa-2; 6.25 μM photosensitizer): 5.07%; Cell viability, Phototoxicity against MIA-PaCa-2 (MIA-PaCa-2; 12.5 μM photosensitizer): 4.93%; Cell viability, Phototoxicity against MIA-PaCa-2 (MIA-PaCa-2; 25 μM photosensitizer): 5.39%; Cell viability, Phototoxicity against MIA-PaCa-2 (MIA-PaCa-2; 50 μM photosensitizer): 5.90%; inhibition at 3 µM (MIA-PaCa-2; Homo sapiens, MIA PaCa-2, 3 μM concentration, with light): > 90%
C=Cc1c(C)c2cc3nc(c(CC(=O)OC)c4[nH]c(cc5nc(cc1[nH]2)C(C)=C5CC)c(C)c4C(=O)NCCCOCCOCCOCCCNC(=O)CCCC(=O)Oc1ccc(/C=C/C(=O)CC(=O)/C=C/c2ccc(O)c(OC)c2)cc1OC)[C@@H](CCC(=O)OC)[C@@H]3C [Compound 16, Chlorine e6-curcumin Conjugate (16)]	97.36	89.19	59.07	24.07	20.24	87.29	45.79	32.67	25.46	27.83	99.9	103	103	80.4	84.1	122	121	113	101	72.8	inhibition at 25 µM (PANC-1; [5]): 76%; inhibition at 25 µM [1, 6]: 75%; Q-band peak [4]: 667 nm; Cell viability, Phototoxicity against MIA-PaCa-2 (MIA-PaCa-2; 3.12 μM photosensitizer): 80.67%; Cell viability, Phototoxicity against MIA-PaCa-2 (MIA-PaCa-2; 6.25 μM photosensitizer): 17.62%; Cell viability, Phototoxicity against MIA-PaCa-2 (MIA-PaCa-2; 12.5 μM photosensitizer): 9.49%; Cell viability, Phototoxicity against MIA-PaCa-2 (MIA-PaCa-2; 25 μM photosensitizer): 8.03%; Cell viability, Phototoxicity against MIA-PaCa-2 (MIA-PaCa-2; 50 μM photosensitizer): 9.67%; inhibition at 25 µM (MIA-PaCa-2; Homo sapiens, MIA PaCa-2, 25 μM concentration, with light): 92%
Dimethylester of Chlorine e6 [dimethyl ester ce6]																					Q-band peak [4]: 656 nm
